Measurements from PubChem BioAssay AID1645866 (Buhrlage Lab, Dana-Farber Cancer Institute and Novartis …, 2021).
Active and inactive are the calls of the source.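 How the source made its calls: active means in confirmatory dose-response testing, peak deubiquitinase inhibition of 30% or more; inactive means the rest.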

Target: Ubiquitin carboxyl-terminal hydrolase 28 (Homo sapiens) (UniProt Q96RU2)
Assay: Concentration-response biochemical assay confirming initial hits as inhibitors of ubiquitin-specific protease 28 (AID 1645866)
Conditions: purified USP28, ubiquitin-rhodamine fluorescence, 30 min

Sequence of Ubiquitin carboxyl-terminal hydrolase 28 (Homo sapiens) (Q96RU2 whole entry, looked up): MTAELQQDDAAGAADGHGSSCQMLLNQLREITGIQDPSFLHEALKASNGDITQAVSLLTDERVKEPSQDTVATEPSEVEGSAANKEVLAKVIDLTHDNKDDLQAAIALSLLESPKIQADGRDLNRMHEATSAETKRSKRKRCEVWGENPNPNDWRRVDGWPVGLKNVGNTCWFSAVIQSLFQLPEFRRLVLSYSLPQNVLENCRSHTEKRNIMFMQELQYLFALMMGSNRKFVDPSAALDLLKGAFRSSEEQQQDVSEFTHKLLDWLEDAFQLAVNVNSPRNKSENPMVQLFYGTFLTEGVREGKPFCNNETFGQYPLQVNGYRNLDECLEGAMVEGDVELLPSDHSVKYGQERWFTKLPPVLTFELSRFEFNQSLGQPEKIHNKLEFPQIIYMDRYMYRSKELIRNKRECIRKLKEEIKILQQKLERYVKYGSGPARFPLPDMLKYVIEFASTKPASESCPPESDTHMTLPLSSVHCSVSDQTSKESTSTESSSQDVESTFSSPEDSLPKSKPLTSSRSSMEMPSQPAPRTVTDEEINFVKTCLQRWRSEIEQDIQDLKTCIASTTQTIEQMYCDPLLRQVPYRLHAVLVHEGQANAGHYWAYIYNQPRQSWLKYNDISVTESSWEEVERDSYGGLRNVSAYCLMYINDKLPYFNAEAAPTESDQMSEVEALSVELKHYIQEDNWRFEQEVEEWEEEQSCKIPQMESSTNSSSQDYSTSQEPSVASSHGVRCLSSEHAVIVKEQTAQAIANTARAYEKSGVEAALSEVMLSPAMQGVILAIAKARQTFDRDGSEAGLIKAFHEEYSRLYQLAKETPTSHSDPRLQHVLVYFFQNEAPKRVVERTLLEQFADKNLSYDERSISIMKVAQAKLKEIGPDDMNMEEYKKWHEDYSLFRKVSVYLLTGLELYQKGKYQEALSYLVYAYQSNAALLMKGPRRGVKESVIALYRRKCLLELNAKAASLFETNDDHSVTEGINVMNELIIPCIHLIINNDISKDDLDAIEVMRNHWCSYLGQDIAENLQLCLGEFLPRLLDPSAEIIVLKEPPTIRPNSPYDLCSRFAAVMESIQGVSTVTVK

| IC50 | Structure (SMILES) |
| --- | --- |
| 9.77 µM | Cc1cc(C)c2cc3c(nc2c1)OC(=O)N(Cc1ccco1)C3 |
| > 50 µM (inactive) | Cc1nn(-c2nc3ccccc3[nH]2)c2c1C(c1cccs1)CC(=O)N2 (configuration not stated) |
| 0.641 µM | Cc1ccc(-n2c(-c3ccccc3)cn3c4c(=O)[nH]c(=O)n(C)c4nc23)cc1C |
| 2.17 µM | O=C(Nc1cccc(-c2nc3ccccc3[nH]2)c1)c1cc2ccccc2oc1=O |
| > 50 µM (inactive) | N#Cc1c(-c2cccs2)cc(-c2cccs2)[nH]c1=O |
| 18.1 µM | CCCCNC(=O)C1Sc2nnc(-c3ccccc3)n2NC1c1ccccc1 (configuration not stated) |
| 25.3 µM | Cc1nc2cccnc2n1C1CCN(C(=O)c2cc3cc(Cl)ccc3[nH]2)C1 (configuration not stated) |
| > 50 µM (inactive) | Cc1ccc2nc(-c3cccc(-c4nc5ccc(C)cc5[nH]4)n3)[nH]c2c1 |
| 1.23 µM | Cn1c2ccccc2c(=O)c2c(=O)n(Cc3ccccc3)c(-c3ccco3)nc21 |
| 10.1 µM | O=C(NCc1ccccc1Cl)c1ccc2cn[nH]c2c1 |
| 22.8 µM | O=C(c1cn(-c2cccc(F)c2)nn1)N1CCc2ccccc2C1 |
| 38.8 µM | Cc1oc(-c2ccc(C(=O)NCC3COCCO3)cc2)nc1CN1CCc2ccccc21 (configuration not stated) |
| 6.94 µM | COc1ccc(NC(=O)c2[nH]nc3c2COc2ccccc2-3)c(OC)c1 |
| > 50 µM (inactive) | Cc1nc2ccccn2c1C1(O)C(=O)Nc2c(Cl)cc(Cl)cc21 (configuration not stated) |
| 9.31 µM | O=C(CSc1ccc2nnc(-c3ccccc3)n2n1)N1CCCc2ccccc21 |
| > 50 µM (inactive) | COc1cccc(CN2CCc3nc4nc(C)ccc4cc3C2)c1 |
| 19.9 µM | Cc1ccc(NC(=O)c2nnn(-c3ccccc3)n2)cc1F |
| 45.2 µM | Cc1ccc(CN2CCCn3nc(C(=O)NCc4ccccc4C)cc3C2=O)cc1 |
| > 50 µM (inactive) | O=C(NCCc1ccccn1)c1cn2ccnc(-c3ccc(F)cc3)c2n1 |

| IC50 | Structure (SMILES) |
| --- | --- |
| > 50 µM (inactive) | Cc1ccc2nc(N3CCc4ccccc4C3)c3nncn3c2c1 |
| > 50 µM (inactive) | O=C(Cn1cnc(-c2noc(-c3ccncc3)n2)c1)N1CCN(c2ccccc2F)CC1 |
| 9.32 µM | O=C(Nc1nc2c(ccc3ccccc32)s1)c1cccc(Br)c1 |
| 16.7 µM | O=C(CCCCn1c(=O)[nH]c2ccccc2c1=O)Nc1cccc(Cl)c1 |
| > 50 µM (inactive) | Cc1c(C)n(-c2ccccc2)c2ncn(CC(=O)N(C)Cc3ccccc3)c(=O)c12 |
| 16.6 µM | Cc1nc(-c2cccc(NC(=O)c3ccccc3Cl)c2)no1 |
| 37.4 µM | COc1ccccc1-c1nc(Cn2nnc(C(=O)Nc3cc(C)cc(C)c3)c2N)c(C)o1 |
| 13.8 µM | O=C(NCCc1ccccn1)c1cc(-c2ccc(Br)cc2)n[nH]1 |
| 42.1 µM | CCn1cc(-c2cc(C(=O)Nc3cnn(Cc4cccc(F)c4)c3)c3ccccc3n2)cn1 |
| 17.1 µM | O=C(CSc1ncnc2c1oc1ccccc12)Nc1ccc2c(c1)OCCO2 |
| 2.51 µM | O=C(NC1CCCCC1)c1cc2c(cn1)[nH]c1ccccc12 |
| 25.1 µM | Cc1nc2ccccc2nc1SCC(=O)Nc1ccc2c(c1)OCO2 |
| 1.8 µM | Cc1c(-c2ccc(C#N)cc2)oc2ccc(Br)cc2c1=O |
| 8.7 µM | COc1cccc(-n2nnc(C(=O)Nc3ccc(C)c(C)c3)c2C)c1 |
| 1.53 µM | Cc1ccc(NC(=O)c2nnn(-c3ccccc3Br)c2C)cc1C |
| 11.4 µM | CCCCCC(=O)N1c2ccccc2NC2=C(C(=O)CC(c3ccc(C(C)(C)C)cc3)C2)C1c1ccncc1 (configuration not stated) |
| > 50 µM (inactive) | Cc1sc(NC(=O)CNc2ccccc2)nc1-c1ccc2c(c1)CCN2C(=O)C(C)C |
| > 50 µM (inactive) | Cc1cccc(O)c1-c1nc2c(-c3nc4c(C(=O)O)cccc4o3)cccc2o1 |

More lines, now with the values behind:

| Structure (SMILES) | IC50 |
| --- | --- |
| Cc1cc(=O)c2c(O)oc(O)c3c(O)cc(=O)c1c32 | 22 µM |
| Cc1ccc(/C=C/C(=O)Nc2ccc3c(c2)OCCO3)cc1 | 3.76 µM |
| COc1ccc(CCNC(=O)CSc2cn(CCNC(=O)c3ccc(F)cc3)c3ccccc23)cc1OC | 28.1 µM |
| FC(F)(F)c1cccc(Nc2nnc(-c3cccnc3)s2)c1 | 12.1 µM |
| Cc1ccc2c(c1)[C@]1(C(=O)N2)[C@@H]2C(=O)N(c3cccc(C(F)(F)F)c3)C(=O)[C@@H]2C2CCCN21 (some centres not stated) | > 50 µM (inactive) |
| CCCC[C@@H](C)/C=C(C)/C=C(\C)C(=O)NC1=C[C@](O)(/C=C/C=C/C=C/C(=O)NC2=C(O)CCC2=O)[C@@H]2O[C@@H]2C1=O | 2.56 µM |
| COc1cccc(CC(=O)Nc2cc(F)c3nc(N4CCOCC4)ccc3c2)c1 | > 50 µM (inactive) |
| COc1cccc(CNC(=O)c2ccc3c(c2)NC(=O)C2CCCN32)c1OC (configuration not stated) | > 50 µM (inactive) |
| CCCc1cc(=O)oc2cc(OCC(=O)NCc3ccc(OC)cc3)ccc12 | 16.6 µM |
| Cc1nc(-c2ccc3c(c2)nnn3CCN2CCOCC2)no1 | > 50 µM (inactive) |
| Cc1cccc(NC(=O)Nc2ccc(C)n(CC(=O)Nc3ccccc3)c2=O)c1 | 4.73 µM |
| O=C(NCCc1ccccc1)c1nnn(Cc2cccc(Cl)c2)c1-n1cccc1 | 1.37 µM |
| Cc1noc(-c2ccc(N3CCCC(C(=O)NCc4ccc(F)cc4)C3)nc2)n1 (configuration not stated) | 20.3 µM |
| COc1cccc2c1C(=O)c1ccc3c(c1C2=O)C(=O)CC(C)(O)C3 (configuration not stated) | > 50 µM (inactive) |
| COc1ccc(Nc2nc(C(=O)NCc3ccc4c(c3)OCO4)cc3occc23)cc1 | 4.91 µM |
| O=C(Nc1ccc(F)cc1F)NC1Cc2ccccc2C1 | 44.1 µM |
| COc1ccc(CCN2COc3c(cc(Cl)c4cccnc34)C2)cc1OC | 14.1 µM |
| COc1ccc(CNC(=O)CN2C(=O)C(C)=C(c3ccc(C)cc3)S2(=O)=O)cc1 | > 50 µM (inactive) |
| CCS(=O)(=O)N1CCc2cc(C(=O)Nc3ccc4c(c3)OCCO4)ccc21 | 0.364 µM |
| COc1cc(OC)cc(-c2nc(-c3cn(-c4cccc(F)c4)nn3)no2)c1 | 0.483 µM |
| COc1ccc(C)cc1NC(=O)C(NS(=O)(=O)c1ccc2c(c1)CCN2C(C)=O)C(C)C (configuration not stated) | > 50 µM (inactive) |
| O=C(NC1CCN(Cc2ccccc2)CC1)c1[nH]nc2c1COc1ccccc1-2 | 6.98 µM |

| Structure (SMILES) | IC50 |
| --- | --- |
| CC1CCCCN1c1nc(F)c2c(c1F)S(=O)(=O)CCN2Cc1ccccc1 (configuration not stated) | > 50 µM (inactive) |
| CC(=O)Nc1cc2cc(-n3cccc3)ccc2oc1=O | 24.9 µM |
| Nc1c(-c2ccc(Cl)cc2)cnc2cc(-c3ccc(Cl)c(Cl)c3)nn12 | 3.28 µM |
| O=C1C[C@@H](O)[C@H](O)[C@@]23O[C@@]12C1(Oc2cccc4cccc(c24)O1)[C@@H]1O[C@@H]1[C@@H]3O | 24.3 µM |
| CC(C)c1nc2sc3c(NCc4ccco4)ncnc3c2c2c1CCC2 | 3.08 µM |
| COc1ccc(CCNC(=O)c2cn(-c3ccc(F)cc3)nn2)cc1OC | 20.8 µM |
| O=c1c(S(=O)(=O)c2cc(F)cc(F)c2)c[nH]c2cc(Cl)ccc12 | 20.6 µM |
| CC1CCCCN1CCCNC(=O)c1ccc(N2CCc3ccccc32)s1 (configuration not stated) | 10.6 µM |
| COc1ccc(-c2cc(C(=O)N3CCN(c4ccc([N+](=O)[O-])cc4)CC3)[nH]n2)cc1 | > 50 µM (inactive) |
| Cc1ccc(NC(=O)Cn2c(Nc3cccc(C)c3)nc(C)cc2=O)cc1 | 25.4 µM |
| COc1ccc(Cl)cc1N1C(=O)[C@H]2[C@@H](C1=O)[C@]1(C(=O)Nc3c(C)cc(C)cc31)N1CCC[C@@H]21 | > 50 µM (inactive) |
| Cc1cc(O)c(Oc2cc(C)cc(O)c2O)c(O)c1 | 15.1 µM |
| CC1CCN(c2cc(-n3cnc(C(=O)N4CCCC(C)C4)c3)ncn2)CC1 (configuration not stated) | 10.1 µM |
| COc1ccc2nc(-c3ccc(NC(=O)c4cccc(OC)c4OC)cc3)cn2n1 | 2.43 µM |
| O=C(NCC1CC1)C1CCCN(c2ccc(-c3ccccc3)nn2)C1 (configuration not stated) | > 50 µM (inactive) |
| O=C(Cn1c(=O)c2sccc2n(Cc2ccc([N+](=O)[O-])cc2)c1=O)NCCc1ccccc1 | 19.5 µM |
| C[C@@H]1OC2=C(C(=O)c3cccc(O)c3C2=O)[C@H](O)[C@@H]1O | 2.79 µM |
| O=C(NC1CCCC1)c1cccc(-c2ccc(N3CCCC3)nc2)c1 | 8.14 µM |
| O=C(COc1cccc2ccc(N3CCC(Cc4ccccc4)CC3)nc12)NCc1ccc(F)cc1 | 20.7 µM |
| COc1ccc(OC)c(NC(=O)C2=C(C)Nc3ncnn3C2c2ccccc2OCc2ccc(C)cc2)c1 (configuration not stated) | 19.9 µM |
| COc1cc(NC(=O)Cc2ccccc2)ccc1NC(=O)c1cc2ccccc2o1 | 3.01 µM |
| COc1c(O)cc(CC(=O)O)c(C(C)=O)c1O | 10.5 µM |

| Structure (SMILES) | IC50 |
| --- | --- |
| COc1cccc(NC(=O)C2CCN(C(=O)c3cc(-c4cccnc4)n[nH]3)CC2)c1 | 20.3 µM |
| CCC1=C(c2ccc(C)cc2)S(=O)(=O)NC1=NCC(=O)NC(C)c1ccccc1 (configuration not stated) | 19.5 µM |
| Cc1ccc(NC(=O)Cn2cc(S(=O)(=O)N3CCCC3)ccc2=O)cc1 | 17.2 µM |
| O=C(CCc1ccc(S(=O)(=O)N2CCOCC2)cc1)Nc1ccc2c(c1)OCCO2 | 13.1 µM |
| COc1ccc(C(=O)CCN2CCOCC2)cc1[N+](=O)[O-] | > 50 µM (inactive) |
| O=C(NCc1ccc(F)cc1)N1CCC2(C1)Nc1cccnc1NC2=NCc1ccccc1 (configuration not stated) | > 50 µM (inactive) |
| CCn1c(Cn2cccn2)nc2cc(NC(=O)c3ccc(F)cc3)ccc21 | 15.5 µM |
| CCC(=O)N1c2ccccc2NC2=C(C(=O)CC(c3ccccc3OCc3ccccc3)C2)C1c1ccccc1 (configuration not stated) | 4.53 µM |
| COc1ccc(C(=O)NCC(c2ccc3c(c2)CCCN3C)N2CCCC2)cc1 (configuration not stated) | > 50 µM (inactive) |
| O=S1(=O)CCN(Cc2c(F)cccc2F)c2c(F)nc(N3CCOCC3)c(F)c21 | > 50 µM (inactive) |
| CC(=O)Nc1cc(-c2cccc(O)c2)cn2c(-c3cnn(C)c3)cnc12 | 5.99 µM |
| Clc1ccc(C[n+]2cc(-c3ccc(Cl)cc3)n3c2CCC3)cc1 | 13.6 µM |
| O=C(Nc1ccccc1)c1cn(-c2cc(N3CCCC3)ncn2)cn1 | > 50 µM (inactive) |
| COc1ccc(-c2nnc(SCc3ccccc3C#N)o2)c(OC)c1 | > 50 µM (inactive) |
| COCCNC(=O)c1ccnn1-c1ccc2ccc(-c3cccnc3)cn12 | > 50 µM (inactive) |
| Cc1ccc(NC(=O)Cn2c(-n3nc(C)cc3C)nc3c(c2=O)CCCC3)c(C)c1 | 35.8 µM |
| Cc1cccc(C(=O)Nc2ccc3c(c2)nc(CSc2nccc(C)n2)n3C)c1 | < 0.05 µM |
| CS(=O)(=O)N1CCCN(c2nc3cc(Cl)ccc3n3cccc23)CC1 | > 50 µM (inactive) |
| Cc1ccccc1NC(=O)c1ccn(COc2ccc(Cl)cc2)n1 | 13.3 µM |
| COc1ccc(CC(=O)Nc2cccc(-c3nc4ncccc4o3)c2)cc1OC | > 50 µM (inactive) |
| O=S(=O)(c1ccccc1)N1CCN2Cc3ccccc3N(Cc3ccccc3)CC2C1 (configuration not stated) | > 50 µM (inactive) |
